Test results reported in patent US20110189308A1, “METHODS TO TREAT NEURODEGENERATIVE CONDITIONS OR DISEASES BY TARGETING COMPONENTS OF A PTEN SIGNALING PATHWAY” (priority 2008, published 2011).

Test system: primary cortical cultures from (Atg7^flox/flox) mice
Test: Process length in primary cortical cultures from Atg7 flox/flox mice transfected with Cre plasmid, with PI3K inhibitors
Format: cell-based, mouse
Details: FIG. 16D; 10 μM Wortmannin or 50 μM LY294002; n>45 neurons per group; mean±S.E.
From the text: FIGS. 16A-16D. Primary midbrain neuronal cultures from autophagy-deficient Dat^Cre/+Atg7^flox/flox mice display prolonged neurites. FIG. 16A, Elongated processes in TH-positive neurons in primary midbrain cultures from autophagy-deficient (Dat^Cre/+Atg7^flox/flox) mice relative to controls (Dat^Cre/+Atg7^flox/wild). FIG. 16B, The elongated process phenotype is also apparent in primary cortical cultures from (Atg7^flox/flox) mice transfected with Cre-recombinase encoding plasmid (along with GFP plasmid) compared to primary neurons transfected with GFP plasmid alone. […] FIG. 16C, Quantitation of process length as in (A). Dat^Cre/+Atg7^flox/wild versus Dat^Cre/+Atg7^flox/flox; 0.933±0.098 mm versus 1.704±0.139 mm, p<0.01. n>49 neurons per group in at least three separate independent experiments. FIG. 16D, quantification of data as in (C). Dat^Cre/+Atg7^flox/wild versus Dat^Cre/+Atg7^flox/flox; 0.428±0.036 mm versus 0.721±0.073 mm (DMSO), 0.198±0.018 mm versus 0.217±0.021 mm (Wortmannin, WM), and 0.158±0.015 mm versus 0.176±0.018 mm (LY294002, LY). n>45 neurons per group in at least three separate independent experiments. Bar, 50 μm.**, P<0.01.
Cell Culture. For midbrain culture, midbrain tissues were dissected from newborn mice (postnatal 0 day). The tissues were minced and digested in isolation medium containing 0.25% trypsin and ascorbic acid at 37° C. for 30 min. After the incubation, the digestion was stopped by 3% fetal bovine serum and 0.25% Dnase I. The tissues were triturated 20 times by glass-pipette and filtrated by cell strainer. They were centrifuged at 1,200 rpm for 5 min, and the supernatants were removed. The cells were suspended in plating medium containing 10% fetal bovine serum and plated on poly-D-lysine and laminin-coated 24-well plates. On the next day, the plating medium was replaced by culture medium containing 1% fetal bovine serum and antimitotic agent. The cells were kept on 37° C. for three more days. For cortical culture, cortical tissues were dissected from newborn mice (postnatal 0 day). The tissues were minced and digested in isolation medium containing 0.25% trypsin at 37° C. for 30 min. After the incubation, the digestion was stopped by 3% fetal bovine serum and 0.25% Dnase I. The tissues were triturated 20 times by glass-pipet and filtrated by cell strainer. They were centrifuged at 1,200 rpm for 5 min, and the supernatants were removed. The cells were suspended in plating medium containing 10% fetal bovine serum and plated on poly-D-lysine and laminin-coated 24-well plates. On second day, the cells were transfected with GFP or Cre expression plasmids. To transfect the plasmids, the cells were washed in 500 μl DMEM and added 30 μl of DNA/Ca/Phosphate complex (2 μg DNA/3.75 μl 1M CaCl2/15 μl 2× HBSS). […]

Row | Structure (SMILES) | process length, Atg7-deficient neurons (Dat^Cre/+Atg7^flox/flox) | process length, control neurons (Dat^Cre/+Atg7^flox/wild)
1 | O=c1cc(N2CCOCC2)oc2c(-c3ccccc3)cccc12 [LY294002] | 0.176±0.018 mm | 0.158±0.015 mm
2 | COC[C@H]1OC(=O)c2coc3c2[C@@]1(C)C1=C(C3=O)[C@@H]2CCC(=O)[C@@]2(C)C[C@H]1OC(C)=O [Wortmannin] | 0.217±0.021 mm | 0.198±0.018 mm
